Data published in article PMC5858870 (Environmental pollution (Barking, Essex : 1987), 2018).
Where two headings read alike, the source gives them in different places.

Tests used:
[1] = for Whole-body conc D 50 High / Whole-body conc D 50 Med: day 50 (after depuration), wet weight, < = reporting limit; for Whole-body conc D 50 Med: medium dose
fish = conditions: ref Kim et al. (2007); cited from earlier work
male fathead minnow = conditions: exposed to 40,000 ng/L (40 ng/mL); ref Niemuth and Klaper, 2015; cited from earlier work
[2] = Apparent half-life during depuration phase; conditions: whole-body, apparent first order
[3] = tested on: mitochondrial respiration; conditions: ref Schnellmann et al., 1990; Shim et al., 2016; cited from earlier work
[4] = in vivo; cited from earlier work
carp = carp (Catla catla) exposed; ref Muthuviveganandavel et al., 2013; cited from earlier work
rainbow trout = conditions: relatively low concentrations in the range of ng/mL; ref Ashfield et al., 1998; cited from earlier work
[5] = day 32, high dose, nominal ratio 10×
[6] = day 32, low dose, nominal ratio 0.3×
[7] = day 32, medium dose, nominal ratio 1×
[8] = Chinook salmon (Oncorhynchus tshawytscha), juvenile, in vivo, 32 d
[9] = Chinook salmon (Oncorhynchus tshawytscha), juvenile, in vivo, 50 d

Molecule | WB conc. factor (lab / field) D 32 High [1, 5] | WB conc. factor (lab / field) D 32 Low [1, 6] | WB conc. factor (lab / field) D 32 Med [1, 7] | WB conc. factor (lab / field) D 50 Med ([1]; day 50, medium dose) | other results
CN(C)CCC=C1c2ccccc2CCc2ccccc21 [Amitriptyline, reference compound] | 1.41 | 0.19 |  |  | 
CCOC(=O)C1=C(COCCN)NC(C)=C(C(=O)OC)C1c1ccccc1Cl (centres unmarked) [Amlodipine, reference compound] | 19.5 | 1.15 | 1.12 |  | 
CC[C@H]1OC(=O)[C@H](C)[C@@H](O[C@H]2C[C@@](C)(OC)[C@@H](O)[C@H](C)O2)[C@H](C)[C@@H](O[C@@H]2O[C@H](C)C[C@H](N(C)C)[C@H]2O)[C@](C)(O)C[C@@H](C)CN(C)[C@H](C)[C@@H](O)[C@]1(C)O [Azithromycin, reference compound] | 17.1 | 1.67 | 1.03 | 1.42 | 
CNCCN1C(=O)[C@H](OC(C)=O)[C@H](c2ccc(OC)cc2)Sc2ccccc21 [Desmethyl-diltiazem] | 108 | 4.67 | 9.00 | 9.6 | Whole-body conc D 50 High [1]: 119 ng/g; Whole-body conc D 50 Med [1]: 14.4 ng/g
COc1ccc([C@@H]2Sc3ccccc3N(CCN(C)C)C(=O)[C@@H]2OC(C)=O)cc1 [Diltiazem, reference compound] | 63.8 | 10.7 | 6.56 | 2.37 | 96h LC50 (fish): 15 µg/mL
CN(C)CCOC(c1ccccc1)c1ccccc1 [Diphen hydramine, reference compound] | 5.37 | 0.67 | 0.43 |  | 
O=C(O)C(F)(F)C(F)(F)C(F)(F)C(F)(F)C(F)(F)C(F)(F)C(F)(F)C(F)(F)C(F)(F)F [PFDA] | 39.9 | 1.68 | 2.76 | 2.63 | Whole-body conc D 50 High [1]: 14.4 ng/g; Whole-body conc D 50 Med [1]: 2.05 ng/g; Half life High [2]: 16.2 days; Half life Med ([2]; medium dose): 262 days
O=C(O)C(F)(F)C(F)(F)C(F)(F)C(F)(F)C(F)(F)F [PFHxA] |  |  |  |  | Whole-body conc D 50 High [1]: 0.82 ng/g; Whole-body conc D 50 Med [1]: 0.49 ng/g
NS(=O)(=O)C(F)(F)C(F)(F)C(F)(F)C(F)(F)C(F)(F)C(F)(F)C(F)(F)C(F)(F)F [PFOSA] |  |  |  |  | WB conc. factor (lab / field) D 32 High [1, 8]: 85.9; WB conc. factor (lab / field) D 32 Low [1, 8]: 2.74; WB conc. factor (lab / field) D 32 Med [1, 8]: 4.15; WB conc. factor (lab / field) D 50 High [1, 9]: 55.9; WB conc. factor (lab / field) D 50 Med [1, 9]: 7.0; Uncoupling of mitochondrial respiration [3]: known uncouplers of mitochondrial respiration; Max WB conc field Scul [4]: 2.2 ng/g
O=S(=O)(O)C(F)(F)C(F)(F)C(F)(F)C(F)(F)C(F)(F)C(F)(F)C(F)(F)C(F)(F)F [PFOS] | 4.01 | 0.17 | 0.22 | 0.34 | Whole-body conc D 50 High [1]: 123 ng/g; Whole-body conc D 50 Med [1]: 11.6 ng/g; Half life High [2]: 134 days
Oc1cc(Cl)ccc1Oc1ccc(Cl)cc1Cl [Triclosan] |  |  |  |  | Uncoupling of mitochondrial respiration [3]: known uncouplers of mitochondrial respiration
CC1(C)C(C=C(Cl)Cl)C1C(=O)OC(C#N)c1cccc(Oc2ccccc2)c1 (centres unmarked) [cypermethrin] |  |  |  |  | Plasma enzymes ALT, AMYL, and acid phosphatase (carp): large reductions
nonylphenol |  |  |  |  | Growth in rainbow trout (rainbow trout): inhibited growth
nonylphenol diethoxylate |  |  |  |  | Growth in rainbow trout (rainbow trout): inhibited growth
octylphenol |  |  |  |  | Growth in rainbow trout (rainbow trout): inhibited growth

Further lines, with some results ahead:

WB conc. factor (lab / field) D 32 High [1, 5] | WB conc. factor (lab / field) D 32 Low [1, 6] | WB conc. factor (lab / field) D 32 Med [1, 7] | Molecule | WB conc. factor (lab / field) D 50 Med ([1]; day 50, medium dose) | other results
4.00 | 0.29 | 0.21 | CNCCC(Oc1ccc(C(F)(F)F)cc1)c1ccccc1 (centres unmarked) [Fluoxetine, reference compound] | 0.19 | 
2.57 |  |  | Cc1ccc(C)c(OCCCC(C)(C)C(=O)O)c1 [Gemfibrozil, reference compound] |  | 
1.42 | 0.16 |  | CN(C)C(=N)N=C(N)N [Metformin, reference compound] |  | Growth in male fathead minnow (male fathead minnow): reduced growth
7.39 | 0.64 |  | Clc1ccc(COC(Cn2ccnc2)c2ccc(Cl)cc2Cl)c(Cl)c1 (centres unmarked) [Miconazole, reference compound] |  | 
5.59 | 0.31 | 0.38 | NCCC(Oc1ccc(C(F)(F)F)cc1)c1ccccc1 (centres unmarked) [Norfluoxetine] | 0.52 | 
0.53 |  |  | CN[C@H]1CC[C@@H](c2ccc(Cl)c(Cl)c2)c2ccccc21 [Sertraline, reference compound] |  | 
1.34 |  |  | O=C(Nc1ccc(Cl)cc1)Nc1ccc(Cl)c(Cl)c1 [Triclocarban] |  | 
